Experimental data taken from patent publication US10473670B2 (University of Kentucky Research Foundation, priority 2016, dated 2019).

Experiments:
AMPK [1] = assay: Western blot of p-AMPK in FHs 74 Int cells; assay type: cell-based, human; settings: FHs 74 Int cells; AICAR 1 mM 2 h, oleate 0.1 mM 1 h
Method: G. Human small intestinal cells (FHs74Int) (left panel) and RIE-1 cells (right panel) were treated with the indicated concentrations of oleate for 1 h and lysates were analyzed by western blotting. […] All data are mean+/−SD. Experiments in vitro were at least repeated three times.

[2] = tested on: mTORC1 and ERK1/2 signaling; assay: Western blot of p-S6K1 and p-ERK1/2 in BON cells; assay type: cell-based, human; settings: AICAR 3 h
Method: (§1) FIGS. 16A-D show graphs and images illustrating Cross-talk of AMPK and mTORC1 signaling. A. Diagram of cross-talk of AMPK and mTORC1 signaling. B. Western blot analysis of BON cells treated with or without AICAR (left panel) or 1 mM AICAR and CC (10 μM) (right panel) for 3 h. C. NT EIA (upper panel) and western blotting (lower panel) on BON cells expressing control vector and myc-raptor S722A/S792A treated with AICAR (1 mM) for 3 h. D. NT EIA (upper panel) and western blotting (lower panel) on BON cells expressing control vector and NTC and TSC2 siRNA treated with AICAR (1 mM) for 3 h. *p<0.05 vs. control in vector, †p<0.05 vs. AICAR in vector (C); *p<0.05 vs. control in NTC siRNA, †p<0.05 vs. control in NTC siRNA, ‡ p<0.05 vs. AICAR in NTC siRNA (D). n=6. All data are mean+/−SD.
AMPK activation inhibits mTORC1 through raptor, a component of mTORC1, or TSC2, a negative regulator of mTORC1 signaling. […] Moreover, a stable BON overexpression cell line was generated with a mutant raptor vector in which both Ser722 and Ser792 (AMPK phosphorylation sites) are replaced by alanine. […] Together, these findings further indicate the interaction of AMPK, mTORC1 and ERK signaling in the regulation of NT secretion.

FHs74Int cells = assay: In vitro FA absorption (BODIPY FL C16) in FHs74Int cells; assay type: cell-based, human; settings: AICAR 1 mM 3 h, BODIPY FL C16 15 min
Method: All data are mean+/−SD. Experiments in vitro were at least repeated three times.
For in vitro FA absorption or lipid accumulation studies, FHs74Int and RIE-1 cells were incubated with either bovine serum albumin (BSA) (Sigma-Aldrich) or BSA-conjugated BODIPY® FL C16 (4,4-Difluoro-5,7-Dimethyl-4-Bora-3a,4a-Diaza-s-Indacene-3-Hexadecanoic Acid) (Life Technologies) for 15 min. BSA-conjugated oleate sodium was also used to treat cells for 1 h; cells were then stained with BODIPY® 493/503 (4,4-Difluoro-1,3,5,7,8-Pentamethyl-4-Bora-3a,4a-Diaza-s-Indacene) (Life Technologies). Images were observed under an FV1000 Olympus confocal microscope with a ×60, 1.35-numerical aperture oil objective (Olympus, Tokyo, Japan). Images were analyzed with Olympus FV10-ASW2.1 software. To quantify green intensity, 3 images were taken at consistent conditions and 10 cells from each image were analyzed using the area tool. […] Cells were collected, lysed and triglyceride content was measured by Triglyceride Determination Kit (Sigma-Aldrich). All experiments were carried in serum-free medium and fatty acid-free BSA was used at 0.1%.

BON cells = assay: NT secretion from BON cells (NT EIA); assay type: cell-based, human
Method: as §1, with “FIGS. 14A-C show graphs and images illustrating that FFA activates AMPK signaling and increases NT secretion. A. Plasma NT of male C57BL/6 mice (5-mo-old, n=5) 1 h after olive oil (OO) oral gavage. *p<0.05 vs. NC; n=5. B. NT EIA (upper panels) and western blotting (lower panels) on BON cells treated with or without OA for 1 h. C. NT EIA (upper panels) and western blotting (lower panels) on QGP-1 cells treated with or without OA for 1 h. *p<0.05 vs. control; n=6. All data are mean+/-SD. FIGS.” for “FIGS.”, “[…]/[…]” for “S722A/S792A”, “mean+/-SD. […]” for “mean+/−SD.”

AMPK [3] = assay: Western blot of p-AMPK and p-ACC in BON cells; assay type: cell-based, human; settings: OA 1 h
Method: (§2) FIGS. 14A-C show graphs and images illustrating that FFA activates AMPK signaling and increases NT secretion. A. Plasma NT of male C57BL/6 mice (5-mo-old, n=5) 1 h after olive oil (OO) oral gavage. *p<0.05 vs. NC; n=5. B. NT EIA (upper panels) and western blotting (lower panels) on BON cells treated with or without OA for 1 h. C. NT EIA (upper panels) and western blotting (lower panels) on QGP-1 cells treated with or without OA for 1 h. *p<0.05 vs. control; n=6. All data are mean+/−SD. Tissues and cells were lysed with lysis buffer (Cell Signaling Technology), and equal amounts of protein were resolved on 4-12% NuPAGE BisTris gels (Life Technologies) and electrophoretically transferred to polyvinylidene difluoride (PVDF) membranes; the membranes were incubated with primary antibodies overnight at 4° C. followed by secondary antibodies conjugated with horseradish peroxidase. Membranes were developed using chemiluminescence (ECL) Western Blotting System from GE Healthcare Life Science (Piscataway, N.J.) and Thermo Scientific (Waltham, Mass.).

QGP-1 cells = assay: NT secretion from QGP-1 cells (NT EIA); assay type: cell-based, human; settings: OA 1 h
Method: FIGS. 14A-C show graphs and images illustrating that FFA activates AMPK signaling and increases NT secretion. A. Plasma NT of male C57BL/6 mice (5-mo-old, n=5) 1 h after olive oil (OO) oral gavage. *p<0.05 vs. NC; n=5. B. NT EIA (upper panels) and western blotting (lower panels) on BON cells treated with or without OA for 1 h. C. NT EIA (upper panels) and western blotting (lower panels) on QGP-1 cells treated with or without OA for 1 h. *p<0.05 vs. control; n=6. All data are mean+/−SD. Fifty μl of media were used to measure NT levels using NT EIA Kit from Phoenix Pharmaceuticals (Burlingame, Calif.) as described previously^30-33.

STC-1 cells = assay: NT release from STC-1 cells (NT EIA); assay type: cell-based, mouse; settings: OA 0.25 mM, phorbol myristate acetate 100 nM
Source text: (§3) FIGS. 15A-B show graphs and images illustrating that FFAR1 and FFAR4 agonists increase AMPK activity. A. NT IF (left panel), NT EIA (middle panel, *p<0.05 vs. control) and western blotting (right panel) of STC-1 cells. B. Real-time PCR. GAPDH was used as the internal control (BON cell expression was arbitrarily set at 1). All data are mean+/−SD.
(§4) FFAR1 (previously known as GPR40) and FFAR4 (previously known as GPR120) are medium- to long-chain FFA G-protein-coupled receptors that have been implicated in the regulation of energy homeostasis and hormone secretion.

AMPK [4] = assay: Western blot of p-AMPK and p-ACC in QGP-1 cells; assay type: cell-based, human; settings: OA 1 h
Method: as §2

AMPK [5] = assay: Western blot of p-AMPK in STC-1 cells; assay type: cell-based, mouse; settings: agonists 1 μM, 90 min, or OA
Source text: as §3, §4

SMILES | oleate-stimulated p-AMPK (AMPK [1]) | expression of p-S6K1 [2] | p-ERK1/2 [2] | FA absorption (FHs74Int cells) | NT secretion (BON cells; AICAR 1 mM 3 h) | phosphorylation of AMPK (p-AMPK) (AMPK [3]) | phosphorylation of acetyl-CoA carboxylase (p-ACC) (AMPK [3]) | NT secretion (QGP-1 cells) | NT release (STC-1 cells) | phosphorylation of AMPK (p-AMPK) (AMPK [4]) | phosphorylation of acetyl-CoA carboxylase (p-ACC) (AMPK [4]) | p-AMPK expression (AMPK [5]) | NT secretion (BON cells; OA 1 h)
NC(=O)c1ncn([C@@H]2O[C@H](CO)[C@@H](O)[C@H]2O)c1N [AICAR, 5-aminoimidazole-4-carboxamide-1-β-D-ribofuranoside] | further increased oleate-stimulated p-AMPK | decreased expression of p-S6K1 | increased p-ERK1/2 | concomitantly decreased FA absorption | stimulated NT secretion |  |  |  |  |  |  |  | 
CCCCCCCC/C=C\CCCCCCCC(=O)O [OA, oleic acid] |  |  |  |  |  | increased phosphorylation | increased phosphorylation | stimulated NT secretion | stimulated NT release | increased phosphorylation | increased phosphorylation | increased p-AMPK expression | stimulated NT secretion
